Assay results published in patent publication US5202434A, “8a-aza-8a-homoerythromycin lactams” (Merck & Co., Inc., priority 1992, dated 1993).
Converted amounts (≈) assume the structure as drawn.

Assays:
Experiment in all cases: MIC, liquid turbidimetric microtiter broth method
Assay type in all cases: cell-based
[1] = test system: Escherichia coli MB 4926; conditions: MB4926
Excerpt: (§1) The compounds of formula (II) will show antibacterial activity against a range of aerobic Gram positive and negative bacteria as shown in the following Table. The assay employs a liquid turbidimetric microtiter method for determination of the minimum inhibitory concentration (MIC) in broth media. […] The MIC is generally not an absolute value but rather a concentration range that falls within a two-fold dilution limit. Generally, twelve two-fold dilutions of the test compound are employed with the initial concentration set at 128 mcg/ml.

[2] = test system: Streptococcus viridans CL 2943; conditions: CL2943
Excerpt: as §1

[3] = test system: Steptococcus pneumoniae CL 2883
Excerpt: as §1

MIC [1]: 4 mg/L (≈ 5.34 µM)
MIC [2]: 4 mg/L (≈ 5.34 µM)
MIC [3]: ≤ 0.06 mg/L
Compound: CC[C@H]1OC(=O)[C@H](C)[C@@H](O[C@H]2C[C@@](C)(OC)[C@@H](O)[C@H](C)O2)[C@H](C)[C@@H](O[C@@H]2O[C@H](C)C[C@H](N(C)C)[C@H]2O)[C@](C)(O)C[C@@H](C)NC(=O)[C@H](C)[C@@H](O)[C@]1(C)O [8aaza-8a-homoerythromycin A, 8a-Aza-8a-homoerythromycin A]
